In brackets after ≈: the same amount, converted by molar mass.
How the values were obtained:
T. rubrum = assay: MIC, modified CLSI M38A broth dilution; format: cell-based, Trichophyton rubrum; settings: for MIC Range / MIC50 / MIC90: T. rubrum, n = 6; for MIC / MIC50 / MIC90: Trichophyton rubrum
Method: (§1) Minimum Inhibitory Concentration (MIC): Minimum inhibitory concentrations of synthetic and semisynthetic and natural products against dermatophytes were determined using a modification of the Clinical Laboratory Standards Institute (CLSI, formerly National Committee of Clinical Laboratory Standards, NCCLS) M38A standard method for dermatophytes, while MIC of these agents against Candida species were determined using the CLSI M27-A2 methodology. The method used to determine the MIC against bacteria was based on the CLSI document M7-A7.
(§2) For dermatophytes, serial dilutions of terbinafine, tolnaftate were prepared in a range of 0.004-2 μg/ml, while for miconazole concentrations ranged between 0.015-8 μg/ml. Finally, for essential oils, the concentrations tested were between 0.03-16 μg/ml. The only exception was tea tree oil where dilutions were prepared in a range of 0.0078-4 μg/ml. The MIC was read at 4 days post inoculation and defined as the lowest concentration of an agent to inhibit 80% of fungal growth as compared to the growth control (Table 2).

[1] = system: All bacteria (Staphylococcus species); assay: MIC, CLSI M7-A7, pooled bacteria; format: cell-based, S. aureus, S. epidermidis; settings: for MIC50 / MIC90: Staphylococcus
Method: as §1
For bacterial species, the medium used to evaluate the antibacterial activity of agents and essential oils was Mueller-Hinton (Oxoid Ltd., Basingstoke, Hampshire, England). Serial dilutions of miconazole, terbinafine, and tolnaftate were prepared in a range of 0.125-64 μg/ml and serial dilutions of tea tree oil were prepared in a range of 0.0078-4 μg/ml, while those for the rest of the essential oils were prepared in a range 0.031-16 μg/ml.
In the following Tables, MIC50 and MIC90 are defined as the minimal concentrations of a compound that can inhibit 50% and 90% of the tested organisms, respectively.

E. floccosum = assay: MIC, modified CLSI M38A broth dilution; format: cell-based, Epidermophyton floccosum; settings: for MIC Range / MIC50 / MIC90: E. floccosum, n = 6; for MIC / MIC50 / MIC90: Epidermophyton floccosum
Method: as §1, §2

T. mentagrophytes [2] = assay: Pre-treatment insole biopsy disc assay; format: cell-based, Trichophyton mentagrophytes
Excerpt: (§3) Based on the above experiments, our disc biopsy assay employed Dr. Scholl's insole and leather discs as the optimal substrates representing materials used in shoes, and 30% isopropanol as the optimal vehicle to dissolve the agents to be tested in pre-treatment and post-treatment studies. Two types of disc biopsy assays were used to evaluate the ability of different synthetic and natural substances to disinfect shoe material: (a) Pre-treatment assay: where discs were pre-treated with antifungals first and then infected with T. mentagrophytes, and (b) Post-treatment assay: where discs were first infected with T. mentagrophytes, then treated with drugs. These assays reveal the ability of different agents to prevent and treat shoe fungal contamination, respectively. Pre-treatment assays: To evaluate the ability of different agents to prevent fungal contaminations of shoes, PDA plates were prepared on which 10^4 T. mentagrophytes cells were evenly spread. Next, discs from insoles and leather were treated as follows (with either agent or control vehicle): discs were pretreated with a single spray, spraying for 15 second or 30 second. Other discs were immersed in agent or vehicle for 30 min. Following this treatment, discs were air-dried by placing them in a Petri plate for 1 min. These dried discs were then placed (drug side down) on the seeded PDA plates. Plates were then incubated for 4 days at 30° C. Following incubation, fungal growth was recorded. […] Diameter of the clearance zone (CZD) was measured. The relative activity of different agents and control were assessed.

T. mentagrophytes [3] = assay: Post-treatment leather biopsy disc assay; format: cell-based, Trichophyton mentagrophytes
Excerpt: (§4) Based on the above experiments, our disc biopsy assay employed Dr. Scholl's insole and leather discs as the optimal substrates representing materials used in shoes, and 30% isopropanol as the optimal vehicle to dissolve the agents to be tested in pre-treatment and post-treatment studies.
(§5) Two types of disc biopsy assays were used to evaluate the ability of different synthetic and natural substances to disinfect shoe material: (a) Pre-treatment assay: where discs were pre-treated with antifungals first and then infected with T. mentagrophytes, and (b) Post-treatment assay: where discs were first infected with T. mentagrophytes, then treated with drugs. These assays reveal the ability of different agents to prevent and treat shoe fungal contamination, respectively.
(§6) Post-treatment assays: To evaluate the ability of various agents to treat infected shoes, PDA plates were prepared on which […] T. mentagrophytes cells were evenly spread on their surface. Next, untreated biopsy discs were placed on these PDA plates and incubated for 4 days at 30° C. Incubating the biopsy discs in this manner allowed the fungi to invade the discs. Infected discs were picked and post-treated with different agents by spraying. Post-treated discs were allowed to air dry and were then placed on fresh, uninoculated PDA plates and incubated for 4 additional days at 30° C. Incubation of the discs under these conditions allows any fungi that are not killed by the sprayed agent to grow. In other words, agents that are effective in the treatment of shoe material will not show any fungal growth around the disc biopsy (FIG. 1C). In contrast, discs treated with ineffective agents will show fungal growth emanating from them (FIG. 1D). Diameter of the growth zone (GZD) was determined as a measure of the activity of the agent tested.

T. mentagrophytes [4] = assay: Pre-treatment leather biopsy disc assay; format: cell-based, Trichophyton mentagrophytes
Excerpt: as §3

T. mentagrophytes [5] = assay: Post-treatment insole biopsy disc assay; format: cell-based, Trichophyton mentagrophytes
Excerpt: as §4, §5, §6

| Compound | MIC Range (T. rubrum) [µg/mL] | MIC (T. rubrum; T. rubrum strain 1967) [µg/mL] | MIC (T. rubrum; T. rubrum strain 2098) [µg/mL] | MIC (T. rubrum; T. rubrum strain 2246) [µg/mL] | MIC (T. rubrum; T. rubrum strain 8063) [µg/mL] | MIC (T. rubrum; T. rubrum strain 8071) [µg/mL] | MIC (T. rubrum; T. rubrum strain 8092) [µg/mL] | MIC50 (T. rubrum) [µg/mL] | MIC90 (T. rubrum) [µg/mL] | MIC50 ([1]; n = 12) [µg/mL] | MIC90 ([1]; n = 12) [µg/mL] | MIC Range (E. floccosum) [µg/mL] | MIC (E. floccosum; E. floccosum strain 1666) [µg/mL] | MIC (E. floccosum; E. floccosum strain 1798) [µg/mL] | MIC (E. floccosum; E. floccosum strain 1925) [µg/mL] | MIC (E. floccosum; E. floccosum strain 1926) [µg/mL] | MIC (E. floccosum; E. floccosum strain 1961) [µg/mL] | MIC (E. floccosum; E. floccosum strain 2165) [µg/mL] | MIC50 (E. floccosum) [µg/mL] | MIC90 (E. floccosum) [µg/mL] | further results |
| --- | --- | --- | --- | --- | --- | --- | --- | --- | --- | --- | --- | --- | --- | --- | --- | --- | --- | --- | --- | --- | --- |
| Clc1ccc(COC(Cn2ccnc2)c2ccc(Cl)cc2Cl)c(Cl)c1 (centres unmarked) [Miconazole, miconazole] | 0.125 to 0.25 | 0.125 (≈ 0.3 µM) | 0.125 (≈ 0.3 µM) | 0.125 (≈ 0.3 µM) | 0.125 (≈ 0.3 µM) | 0.25 (≈ 0.601 µM) | 0.25 (≈ 0.601 µM) | 0.125 (≈ 0.3 µM) | 0.25 (≈ 0.601 µM) | 1 (≈ 2.4 µM) | 2 (≈ 4.81 µM) | 0.06 to 0.125 | 0.125 (≈ 0.3 µM) | 0.125 (≈ 0.3 µM) | 0.06 (≈ 0.144 µM) | 0.125 (≈ 0.3 µM) | 0.125 (≈ 0.3 µM) | 0.125 (≈ 0.3 µM) | 0.125 (≈ 0.3 µM) | 0.125 (≈ 0.3 µM) | MIC Range ([1]; n = 12): 0.5 to 2 µg/mL |
| CN(C/C=C/C#CC(C)(C)C)Cc1cccc2ccccc12 [Terbinafine, terbinafine] | 0.008 to 0.015 | 0.015 (≈ 0.0515 µM) | 0.015 (≈ 0.0515 µM) | 0.008 (≈ 0.0275 µM) | 0.015 (≈ 0.0515 µM) | 0.015 (≈ 0.0515 µM) | 0.015 (≈ 0.0515 µM) | 0.015 (≈ 0.0515 µM) | 0.015 (≈ 0.0515 µM) | > 64 | > 64 | 0.03 to 0.06 | 0.06 (≈ 0.206 µM) | 0.03 (≈ 0.103 µM) | 0.03 (≈ 0.103 µM) | 0.06 (≈ 0.206 µM) | 0.06 (≈ 0.206 µM) | 0.06 (≈ 0.206 µM) | 0.06 (≈ 0.206 µM) | 0.06 (≈ 0.206 µM) | Insoles Pretreatment (CZD, clearance zone diameter) (T. mentagrophytes [2]; 1% spray in 30% isopropanol): 85 mm; Leather Post-contamination Treatment (GZD) (T. mentagrophytes [3]; 1% spray in 30% isopropanol): 0 mm; MIC Range ([1]; n = 12): >64 µg/mL; MIC Range ([1]; n = 12, listed as TERBINAFINE): >64 µg/mL; MIC Range ([1]; n = 12, listed as terbinafine): > 64 µg/mL; Leather Pretreatment (CZD) (T. mentagrophytes [4]; 1% spray in 30% isopropanol): 85 mm; Insoles Post-contamination Treatment (GZD, growth zone diameter) (T. mentagrophytes [5]; 1% spray in 30% isopropanol): 0 mm |
| Cc1cccc(N(C)C(=S)Oc2ccc3ccccc3c2)c1 [Tolnaftate, tolnaftate] | 0.008 to 0.015 | 0.015 (≈ 0.0488 µM) | 0.015 (≈ 0.0488 µM) | 0.008 (≈ 0.026 µM) | 0.008 (≈ 0.026 µM) | 0.015 (≈ 0.0488 µM) | 0.015 (≈ 0.0488 µM) | 0.015 (≈ 0.0488 µM) | 0.015 (≈ 0.0488 µM) | > 64 | > 64 | 0.06 to 0.125 | 0.06 (≈ 0.195 µM) | 0.06 (≈ 0.195 µM) | 0.06 (≈ 0.195 µM) | 0.125 (≈ 0.407 µM) | 0.125 (≈ 0.407 µM) | 0.06 (≈ 0.195 µM) | 0.06 (≈ 0.195 µM) | 0.125 (≈ 0.407 µM) | Insoles Pretreatment (CZD, clearance zone diameter) (T. mentagrophytes [2]; 1% spray in 30% isopropanol): 25 mm; Insoles Pretreatment (CZD, clearance zone diameter) (T. mentagrophytes [2]; 2% spray in 30% isopropanol): 10 mm; Insoles Pretreatment (CZD, clearance zone diameter) (T. mentagrophytes [2]; 2% spray in 30% isopropanol, listed as tolnaftate): 11 mm; preventive activity against dermatophytes infecting shoes (T. mentagrophytes [2]; acetone as vehicle): potent preventive activity; Leather Post-contamination Treatment (GZD) (T. mentagrophytes [3]; 1% spray in 30% isopropanol): 11 mm; Leather Post-contamination Treatment (GZD) (T. mentagrophytes [3]; 2% spray in 30% isopropanol): 11 mm; Leather Pretreatment (CZD) (T. mentagrophytes [4]; 1% spray in 30% isopropanol): 18 mm; Leather Pretreatment (CZD) (T. mentagrophytes [4]; 1% spray in 30% isopropanol, listed as tolnaftate): 16 mm; Leather Pretreatment (CZD) (T. mentagrophytes [4]; 2% spray in 30% isopropanol): 6 mm; Insoles Post-contamination Treatment (GZD, growth zone diameter) (T. mentagrophytes [5]; 1% spray in 30% isopropanol): 8 mm; Insoles Post-contamination Treatment (GZD, growth zone diameter) (T. mentagrophytes [5]; 2% spray in 30% isopropanol): 10 mm; fungal regrowth from established contamination (T. mentagrophytes [5]; 4% (w/v) in acetone, insole disc): no fungal regrowth was observed |
